In brackets after ≈: the same amount, converted by molar mass.

For data set [1], the target named is T1, human D2R/β-arrestin (Homo sapiens (Human), UniProt P14416). Briefly: β-Arrestin agonist assay (PathHunter). The data set is classed as cell-based. The note with it: CHO-K1 cell line expressing human D2R/β-arrestin. Summed up:
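Readout follows addition of Buffer:Emerald II:Galactor-Star reagent (19:5:1) to agonist-treated plates, measured as luminescence or fluorescence.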

Data set [2] deals with T1, human D2R/β-arrestin. Briefly: Gi/cAMP agonist assay (Lance Ultra cAMP, Forskolin). The data set is classed as cell-based. Particulars: CHO-K1 cell line expressing human D2R/β-arrestin. The essentials: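 Read-out was Lance Ultra competitive TR-FRET (Eu-cAMP tracer plus ULight-anti-cAMP) following forskolin-induced cAMP production. Before forskolin stimulation, compounds were pin-transferred onto the seeded cells for 10 min at 37 °C.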

Another data set can be described thus: Rotarod performance. The data set is classed as in vivo. Particulars: mice, 10 or 30 mg/kg, compared with clozaril at 3 mg/kg. The protocol:
In the test, test animals are placed on a horizontally oriented, rotating cylinder (rod) suspended above a cage floor. The test animals naturally try to stay on the rotating cylinder, or rotarod, and avoid falling to the ground. Test animals are administered with various compounds (e.g., compounds of the invention or control compounds). The length of time that a given animal stays on this rotating rod is a measure of the animal's balance, coordination, physical condition, and motor-planning. The speed of the rotarod is mechanically driven, and can be held constant.
In the test, mice were placed on a horizontally oriented, rotating cylinder (rod) suspended above a cage floor, which was low enough not to injure the animal, but high enough to induce avoidance of fall. The mice naturally try to stay on the rotating cylinder, or rotarod, and avoid falling to the ground.
Background: The rotarod test checks motor coordination on a turning rod.

The test system of the next data set is Caco2. The data set is described as follows: Caco2 permeability. It counts as in vitro ADME. More on the design: unit not given beside the values. Background: Caco-2 monolayers are a common model of the intestinal barrier.
The nature of the next data set: Solubility in PBS. It counts as physicochemical. Particulars: aqueous buffer.
For data set [3], the system named is plasma protein. Briefly: Plasma protein binding, human. Particulars: plasma, read-out: Plasma Protein Binding % bound. It counts as in vitro ADME.
The subject of data set [4] is plasma protein. Briefly: Plasma protein binding, mouse. Particulars: plasma, read-out: Plasma Protein Binding % bound. The data set is classed as in vitro ADME.
For data set [5], the system named is plasma protein. The data set is described as follows: Plasma protein binding, rat. The data set is classed as in vitro ADME. The note with it: plasma, read-out: Plasma Protein Binding % bound.
A short description of another data set: Plasma stability, human. The data set is classed as in vitro ADME.
A further data set in a line: Plasma stability, rat. The data set is classed as in vitro ADME.
Data set [6] in a line: Microsomal stability, human. The data set is classed as in vitro ADME.
The nature of data set [7]: Microsomal stability, rat. It counts as in vitro ADME.
The target in data set [8] is T1, human D2R/β-arrestin. The data set is described as follows: cell-based. The note with it: β-arrestin Antagonist, CHO-K1 cell line expressing human D2R/β-arrestin; quinpirole used as agonist.
Description: (§1) The detection reagents are then added, and the read-out is detected.
(§2) Cells were prepared for assays by growing cultures for up to 2 weeks (from about 6-20 passages). A vial of frozen cells was thawed in a water bath held at 37° C. The cells were then transferred into a 50 ml tube with 10 ml growth media. The vial was rinsed with growth media and the contents transferred to the 50 ml tube. The 50 ml tube was centrifuged at 1200 rpm for 5 minutes at room temperature. […] When the cells reached about 90% confluence (approximately 3 days between passages), the cells were passaged and used for either the agonist or antagonist assays as described below.
(§3) The cells were prepared for β-arrestin assays as described above. The assays were performed using a PathHunter® β-Arrestin Detecting Kit (DiscoveRX). The cells were grown on 225 mm dishes, then washed once with 1×PBS (Cellgro), followed by digestion with 2.5 ml 1× Detachment reagent (DRX 92-0009) for approximately 2 minutes.
Data set [9] has as its target T1, human D2R/β-arrestin. Briefly: cell-based. The note with it: cAMP Antagonist, CHO-K1 cell line expressing human D2R/β-arrestin; quinpirole used as agonist.
Data set [10] can be described thus: Microsomal stability, mouse.
Another data set deals with MDR1-MDCKII. The data set is described as follows: MDR1-MDCKII permeability assay. It counts as in vitro ADME. The source says:
MDR1-MDCKII Permeability Assay
This is a standard permeability assay that predicts brain penetration. It was ran by the CRO Absorption Systems (www.absorption.com/drug-discovery/permeability/cell-based/).

The target of a further data set is D2 (Homo sapiens (Human), UniProt P14416). The data set is described as follows: D2 radioligand binding assay.
For data set [11], the target named is T1, human D2R/β-arrestin. Particulars: CHO-K1 cell line expressing human D2R/β-arrestin, β-arrestin and Gi/cAMP pathways, FIG. 1.
Description: as §1, §2, §3

T1 sequence (P14416 whole entry): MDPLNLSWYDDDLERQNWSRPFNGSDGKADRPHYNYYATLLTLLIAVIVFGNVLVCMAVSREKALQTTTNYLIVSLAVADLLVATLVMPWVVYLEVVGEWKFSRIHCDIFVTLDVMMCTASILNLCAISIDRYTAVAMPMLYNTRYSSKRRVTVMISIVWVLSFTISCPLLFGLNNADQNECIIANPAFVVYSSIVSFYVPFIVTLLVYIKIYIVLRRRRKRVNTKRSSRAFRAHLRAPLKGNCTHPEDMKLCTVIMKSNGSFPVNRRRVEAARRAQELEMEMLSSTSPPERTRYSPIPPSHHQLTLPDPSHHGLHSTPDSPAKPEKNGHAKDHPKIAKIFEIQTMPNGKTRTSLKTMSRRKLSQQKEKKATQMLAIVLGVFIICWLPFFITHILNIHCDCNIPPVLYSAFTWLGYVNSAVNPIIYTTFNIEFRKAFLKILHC
D2, sequence (P14416 whole entry): as above

In general, EC50 refers to the concentration that produces a half-maximal response. What is called solubility is the dissolved amount per volume that the medium holds. The IC50 is the concentration needed to halve the response being measured. Turning to `COc1cccc(C(NC(=O)C2CCN(CCOc3ccccc3)CC2)c2ccccn2)c1` (centres unmarked) [Compound 35], the results for the concentration for a half-maximal effect (EC50) at human D2R/β-arrestin [1] and at human D2R/β-arrestin [2] were > 30000 nM and 1000 to 10000 nM, respectively. In “Rotarod performance”, the “catalepsy in the rotarod test” value is recorded as “promotes far less catalepsy than the known antipsychotic Clozapine at efficacious doses”. Moreover, the “Caco2 A-B” value with Caco2 (A-B direction) amounted to 26.7. Also, the “Caco2 B-A” value in the data set on Caco2 (B-A direction) is listed as 46.7. In addition, the solubility in the data set “Solubility in PBS” worked out at 441 µM (≈ 196 µg/mL). In addition, the figures for the fraction unbound in the data set with plasma protein [3], in the data set on plasma protein [4] and in the data set on plasma protein [5] were 0.086, 0.074 and 0.042, respectively. Moreover, the “Plasma Stability: % remaining after 5 hours” value in the data set “Plasma stability, human” is reported as 100%; in “Plasma stability, rat”, 99.6%; in the data set “Plasma stability, mouse”, 98%. Also, the “Microsomal Stability: % remaining after 60 minutes” value is recorded as 83% in data set [6], 80% in [7] and 74% in data set [10]. Moreover, the IC50 at human D2R/β-arrestin [8] and on human D2R/β-arrestin [9] was 1000 to 10000 nM in each case.

As a reminder, the Ki is a dissociation constant, usually derived from enzyme kinetics or from competition with a known ligand. For `CN(CC1CCN(CCOc2ccccc2)CC1)C(c1ccc(Cl)cc1)c1ccccn1` (centres unmarked) [Compound 79, 1-(4-chlorophenyl)-N-methyl-N-((1-(2-phenoxyethyl)piperidin-4-yl)methyl)-1-(pyridin-2-yl)methanamine], the EC50 at human D2R/β-arrestin [1] was > 30000 nM; at human D2R/β-arrestin [2] it was < 100 nM. In addition, in the data set on MDR1-MDCKII (A-B direction), the “MDR1-MDCKII A-B” value is 6.17. Also, the “MDR1-MDCKII B-A” value in the data set with MDR1-MDCKII (B-A direction) stood at 22.1. This molecule returned an inhibitory constant (Ki) at D2 of 100 to 1000 nM. In addition, the “functional profile at D2R (antagonist mode)” value at human D2R/β-arrestin [11] was “representative β-arrestin biased D2R antagonists”. Further, the half-maximal inhibitory concentration (IC50) at human D2R/β-arrestin [8] was 100 to 1000 nM; at human D2R/β-arrestin [9], > 30000 nM. Further, the “Microsomal Stability: % remaining after 60 minutes” value in [10] was “m0%”.

These data come from US10752588B2 (The Broad Institute, Inc., priority 2014, dated 2020).
